In patent US8367666B2 (priority 2004, dated 2013):
pIC50, pKi: −log10 of the molar value. Read-outs that look alike come from different tables or passages of the source.

Columns and labels:
[1] = system: scratching action induced by Compound 48/80; test: Anti-pruritic activity test by application (Compound 48/80 scratching); assay type: in vivo, mouse (Crj:CD-1 (ICR)); settings: topical, read-out: Itching inhibition ratio % (Concentration %)
Experimental: 1) Preparation of the compound and the reagent: The compound being tested was dissolved in acetone (SIGMA). Compound 48/80 (SIGMA) was dissolved in physiological saline (m by Otsuka Pharmaceutical Co., Ltd.) so as to be 60 μg/mL.
2) Animals: Female Crj: CD-1 (ICR) mice of 6 to 10 age in week (Japan Charles Liver) were used as laboratory animals. The animals were fed in the barrier breeding room where […] in room temperature, 30 to 70% in humidity, and the light and shade condition existed every 12 hours and feed (CE-2: Japan Crea) and the drinking water were freely taken. The hair of dorsa (from the cervical region of the back to the center of the back) of the animals were cut with a hair clipper two days or more before the anti-pruritic activity is evaluated, those with no wound, rubefaction, and thickening of the skin on the dehaired part were chosen and supplied to the experiment on the day of the evaluation. 3) Evaluation procedures: The acetone solution of the compound being tested was applied by 50 μL on the dehaired parts of the mice with a pipeter. On the mice of the control group, 50 μL of acetone was applied. The 15 minutes later, 50 μL (corresponding to 3 μg) of Compound 48/80 solution was injected intradermally in the compound applied parts with the use of a injector (Terumo Corporation), the mice were individually put in five observation cages made of acrylate resin at once, and the scratching action (action of scratching the injection part by the hind leg) frequency during 30 minutes was measured. The evaluation was carried out in one group of 5 to 7 mice. 4) Data processing: The experiment results were shown by the mean values. The test of the significant difference of the compound applying group to the control group was conducted with Welch's t-test, and p<0.05 was assumed to be significant.

CB1 receptor [2] = molecular target: T1, CB1 receptor (Homo sapiens, UniProt P21554); test: Human cannabinoid receptor bonding inhibition test ([3H]CP55940), CB1; assay type: binding; set-up: expressed in transfected cells; membrane fraction; settings: for Ki: read-out: Binding activity (nM) CB1
T1 sequence (P21554 whole entry): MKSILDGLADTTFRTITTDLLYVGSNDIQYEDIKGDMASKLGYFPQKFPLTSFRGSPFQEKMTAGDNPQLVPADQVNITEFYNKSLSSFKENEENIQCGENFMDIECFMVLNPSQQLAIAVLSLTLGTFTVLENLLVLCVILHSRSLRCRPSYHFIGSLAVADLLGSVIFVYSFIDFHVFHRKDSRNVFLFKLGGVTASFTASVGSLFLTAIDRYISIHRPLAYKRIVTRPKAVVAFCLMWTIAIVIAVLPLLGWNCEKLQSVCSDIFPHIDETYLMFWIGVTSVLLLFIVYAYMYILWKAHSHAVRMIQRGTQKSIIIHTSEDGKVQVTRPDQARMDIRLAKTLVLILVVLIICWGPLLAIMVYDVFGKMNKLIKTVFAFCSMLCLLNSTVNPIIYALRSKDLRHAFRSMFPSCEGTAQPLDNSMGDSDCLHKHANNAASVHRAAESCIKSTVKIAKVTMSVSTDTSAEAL

CB2 receptor [3] = molecular target: T2, CB2 receptor (Homo sapiens, UniProt P34972); test: Human cannabinoid receptor bonding inhibition test ([3H]CP55940), CB2; assay type: binding; set-up: expressed in transfected cells; membrane fraction; settings: for Ki: read-out: Binding activity (nM) CB2
T2 sequence (P34972 whole entry): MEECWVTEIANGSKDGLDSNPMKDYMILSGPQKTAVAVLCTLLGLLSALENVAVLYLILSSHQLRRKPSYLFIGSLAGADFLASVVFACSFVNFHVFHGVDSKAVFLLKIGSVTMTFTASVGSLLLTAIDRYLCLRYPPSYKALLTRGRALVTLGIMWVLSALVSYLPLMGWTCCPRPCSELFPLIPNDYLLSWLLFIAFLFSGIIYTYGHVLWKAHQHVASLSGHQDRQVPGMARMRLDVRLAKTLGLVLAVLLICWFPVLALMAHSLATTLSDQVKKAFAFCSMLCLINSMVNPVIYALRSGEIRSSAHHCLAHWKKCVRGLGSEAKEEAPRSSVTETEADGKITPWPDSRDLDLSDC

CB1 receptor [4] = molecular target: T1, CB1 receptor; test: cAMP formation inhibition experiment through a cannabinoid receptor (forskolin stimulation), CB1; assay type: cell-based; set-up: expressed in transfected cells; host or cells: CHO cells; settings: for IC50: read-out: Agonist activity (nM) CB1
Experimental: A compound being tested was added in the CHO cell which had mad human CB1 or CB2 receptor reveal and incubated for 15 minutes, and then forskolin (the final concentration 4 μM, and manufactured by SIGMA Corp.) was added and the mixture was incubated for 20 minutes. After the reaction had been stopped by adding 1M hydrochloric acid, the amount of cAMP in the supernatant was measured with the use of Cyclic AMP kit (made by the CIS Diagnostic Corp.).

CB2 receptor [5] = molecular target: T2, CB2 receptor; test: cAMP formation inhibition experiment through a cannabinoid receptor (forskolin stimulation), CB2; assay type: cell-based; set-up: expressed in transfected cells; host or cells: CHO cells; settings: for IC50: read-out: Agonist activity (nM) CB2
[6] = [3H]CP55940 0.5 nM, membrane preparation of CHO cells expressing CB1, Ki calculated from IC50

SMILES	Ki (CB1 receptor [2]; [6]) [nM]	pKi (CB2 receptor [3])	pIC50 (CB1 receptor [4])	pIC50 (CB2 receptor [5])	inhibition in vivo at 0.5 % ([1]; Mus musculus) [%]	pKi (CB1 receptor [2])	IC50 (CB1 receptor [4]) [nM]	inhibition in vivo at 3 % ([1]; Mus musculus) [%]	further results
O=C(O)Cc1csc(NC(=O)c2cc3c(n(CC4CCCCC4)c2=O)CCCCCC3)c1 [IV-029]	1320	7.37	6.22	7.66	–	–	–	–	inhibition in vivo at 1 % ([1]; Mus musculus): 93%
COC(=O)[C@@H](NC(=O)c1cc(C)c(C)n(Cc2ccc(F)cc2)c1=O)C(C)C [Compound I-094]	–	> 8.70	–	> 8.70	60	> 8.70	9	–	–
CC(C)NC(=O)NC1CCN(C(=O)C(C)(C)NC(=O)c2cc3c(n(CC4CCCCC4)c2=O)CCCCCC3)CC1 [Compound I-599]	–	8.40	–	7.89	67	7.43	37	–	–
O=C(O)CCc1csc(NC(=O)c2cc3c(n(CC4CCCCC4)c2=O)CCCCCC3)n1 [Compound X-64]	580	–	–	–	–	–	–	–	inhibition in vivo at 1 % ([1]; applied as acetone solution 50 μL, concentration 1.0%, mouse, Compound 48/80): 99%; Ki (CB2 receptor [3]; [3H]CP55940 0.5 nM, membrane preparation of CHO cells expressing CB2, Ki calculated from IC50): 18 nM; IC50 (CB1 receptor [4]; inhibition of forskolin (4 μM)-stimulated cAMP formation, CHO cells expressing human CB1): 454 nM; IC50 (CB2 receptor [5]; inhibition of forskolin (4 μM)-stimulated cAMP formation, CHO cells expressing human CB2): 15 nM
CC(C)(C)OC(=O)NC1CCN(C(=O)C(C)(C)NC(=O)c2cc3c(n(CC4CCCCC4)c2=O)CCCCCC3)CC1 [Compound I-570]	–	7.96	–	7.92	–	7.17	709	84	–
O=C(O)Cc1cnc(NC(=O)c2cc3c(n(CCCC(F)(F)F)c2=O)CCCCCC3)s1 [Compound X-115]	1220	8.48	< 5.70	8.07	67	–	–	–	–
CC(C)C[C@@H](CC(=O)O)NC(=O)c1cc2c(n(CC3CCCCC3)c1=O)CCCCCC2 [II-069]	–	8.47	–	8.68	–	7.06	5.6	84	–
C/C=C/C(CC(=O)O)NC(=O)c1cc2c(n(CC3CCCCC3)c1=O)CCCCCC2 (stereo not shown) [II-075]	652	7.32	6.54	8.34	–	–	–	95	–
CC(C)(NC(=O)c1cc2c(n(CC3CCCCC3)c1=O)CCCCCC2)C(=O)C1CCCC(C(N)=O)N1 (stereo not shown) [Compound I-580]	–	8.13	–	7.32	–	7.62	41	98	–
O=C(O)COc1ccc(NC(=O)c2cc3c(n(CC4CCCCC4)c2=O)CCCCCC3)cc1 [Compound X-220]	–	7.74	5.81	–	97	–	–	–	Ki (CB1 receptor [2]): 555 nM; IC50 (CB2 receptor [5]): 231 nM
CC(C)(CCNC(=O)c1cc2c(n(CC3CCCCC3)c1=O)CCCCCC2)C(=O)O [III-017]	149	7.82	6.49	7.46	–	–	–	76	–
CC(C)(NC(=O)c1cc2c(n(CC3CCCCC3)c1=O)CCCCCC2)C(=O)N1CCC(C(=O)NNS(C)(=O)=O)CC1 [Compound I-606]	–	8.36	–	8.06	–	7.22	118	–	inhibition in vivo at 1 % ([1]; Mus musculus): 86%
CCc1c(C)cc(C(=O)N[C@H](C(=O)NC(CO)CO)C(C)(C)C)c(=O)n1CC1CCCCC1 [Compound I-038]	–	> 8.70	–	> 8.70	–	8.15	34	67	–
CCCCn1c(CCC)c(CC)cc(C(=O)NC2(C(=O)O)CCCCC2)c1=O [Compound I-411]	–	–	< 5.70	–	80	–	–	–	Ki (CB1 receptor [2]): > 2000 nM; Ki (CB2 receptor [3]): 382 nM; IC50 (CB2 receptor [5]): 556 nM
O=C(O)CC(NC(=O)c1cc2c(n(Cc3ccc(F)cc3)c1=O)CCCCCC2)C(F)(F)F (stereo not shown) [II-067]	> 2000	7.89	6.16	8.31	–	–	–	68	–
O=C(O)CC1(NC(=O)c2cc3c(n(CC4CCCCC4)c2=O)CCCCCC3)CCCCC1 [II-073]	–	8.21	–	9.70	–	7.06	11	58	–
COCCn1c2c(cc(C(=O)NC3(CC(=O)O)CCCC3)c1=O)CCCCCC2 [XI-035]	–	7.51	–	7.33	69	< 5.70	> 2000	–	–
